PubChem BioAssay AID1996
≈ marks a conversion by molar mass, not a printed value.

Settings: buffer; pH 7.4; 200.0 µM
Work on `COc1ccccc1Oc1ccc2c(c1)C(=O)N(CC1CCCO1)C2=O` (stereo not given) yielded a solubility kinetic of 0.0403 mg/mL (≈ 114 µM). In the case of `COc1cccc(C(=O)Nc2ccc(NC(=O)Cc3ccccc3)cc2)c1`, the solubility kinetic is reported as less than 0.0004 mg/mL. Compound `CC1CN(C(=O)COC(=O)c2ccc(N(C)C)cc2)CC(C)O1` (stereo not given) has a solubility kinetic greater than 0.0481 mg/mL. For `COc1ccc(-c2nc(N)nc(C(F)(F)F)c2-c2cscn2)c(O)c1`, the solubility kinetic was less than 0.0002 mg/mL. For `O=C(CSc1nc2ccccc2[nH]1)c1c[nH]c2ccccc12`, the solubility kinetic was 0.0006 mg/mL (≈ 1.95 µM). For `Cc1ccc(NS(=O)(=O)Cc2ccccc2)cc1Cl`, the solubility kinetic was 0.0018 mg/mL (≈ 6.09 µM). Compound `COc1ccc(N2CCN(C(=O)c3cc(C)on3)CC2)cc1` has a solubility kinetic greater than 0.0452 mg/mL. In the case of `Cc1ccc(NC(=O)N(C)c2ccccc2)cc1`, the solubility kinetic is reported as greater than 0.036 mg/mL. `O=C(NC(=S)N1CCCC1)c1ccc(Cl)cc1` gave a solubility kinetic of 0.0354 mg/mL (≈ 132 µM). Work on `CCN(C(=O)COc1ccc(C)cc1OC)c1cccc2ccccc12` yielded a solubility kinetic of 0.0337 mg/mL (≈ 96.4 µM). For `COC(=O)c1ccc(N2C(=O)C3CC(C)=C(C)CC3C2=O)cc1` (stereo not given), the solubility kinetic was 0.0183 mg/mL (≈ 58.4 µM). `COc1cccc(C(=O)C(C#N)=C(SC)SC)c1` showed a solubility kinetic of 0.0336 mg/mL (≈ 120 µM). For `CCNS(=O)(=O)c1ccc(NC(=O)Nc2ccc3c(c2)OCO3)cc1`, the solubility kinetic was 0.0121 mg/mL (≈ 33.3 µM). For `Cn1c(CC(=O)NNC(=O)c2cccnc2)nc2ccccc21`, the solubility kinetic was greater than 0.0464 mg/mL. `O=C(O)c1cccc2c(/C=N/Nc3ccccn3)c[nH]c12` gave a solubility kinetic greater than 0.042 mg/mL. For `C=COC(=O)c1sc2nc(C)cc(C)c2c1N`, the solubility kinetic was 0.0005 mg/mL (≈ 2.01 µM). For `O=C(COC(=O)c1cccs1)Nc1cccc(S(=O)(=O)N2CCCCC2)c1`, the solubility kinetic was 0.0096 mg/mL (≈ 23.5 µM). In the case of `Cc1c(C(=O)NCCCn2ccnc2)oc2ccccc12`, the solubility kinetic is reported as 0.0341 mg/mL (≈ 120 µM). `Cc1nn(C)cc1S(=O)(=O)Nc1ccc(C(F)(F)F)cc1` gave a solubility kinetic greater than 0.0479 mg/mL. Work on `CCOc1ccc(NC(=O)CCN2C(=S)NC(C)(C)CC2C)cc1` (stereo not given) yielded a solubility kinetic of 0.0415 mg/mL (≈ 119 µM). With `Cc1cc(C)nc(S/C=C/C(=O)c2ccc(F)cc2)n1` the solubility kinetic was less than 0.0003 mg/mL. With `O=C(CN1c2cccc3cccc(c23)S1(=O)=O)Nc1c(F)c(F)c(F)c(F)c1F` the solubility kinetic was 0.0013 mg/mL (≈ 3.03 µM). For `O=C(COC(=O)c1ccc2ncsc2c1)Nc1ccc(OC(F)(F)F)cc1`, the solubility kinetic was 0.0044 mg/mL (≈ 11.1 µM). With `Cc1ccc(NC(=O)CCC(=O)c2ccc(Cl)s2)nc1` the solubility kinetic was 0.0075 mg/mL (≈ 24.3 µM). In the case of `Cc1[nH]c(=O)[nH]c(=O)c1S(=O)(=O)Nc1ccc(F)cc1Cl`, the solubility kinetic is reported as greater than 0.0501 mg/mL. `C=CCNC(=O)c1ccc(-c2nc3ccccc3nc2-c2ccccc2)cc1` gave a solubility kinetic of 0.0117 mg/mL (≈ 32 µM). For `CC(C)Cn1c(N)c(C(=O)COC(=O)c2ccc(Br)cc2)c(=O)n(C)c1=O`, the solubility kinetic was 0.0088 mg/mL (≈ 20.1 µM). `COc1ccc(CNC(=O)COC(=O)c2cccn2C)cc1` showed a solubility kinetic greater than 0.0453 mg/mL. Compound `NS(=O)(=O)c1ccc(CNC(=O)C2CCCN2C(=O)c2cccs2)cc1` (stereo not given) has a solubility kinetic greater than 0.059 mg/mL. In the case of `Cc1noc(C)c1C(=O)OC(C)C(=O)N1CCc2ccccc21` (stereo not given), the solubility kinetic is reported as 0.006 mg/mL (≈ 19.1 µM). With `COc1ccccc1Nc1c2c(nc3ccc(N)cc13)CCCC2` the solubility kinetic was 0.0472 mg/mL (≈ 148 µM). `Cc1cc(C(=O)CCl)c(C)n1-c1ccon1` gave a solubility kinetic of 0.0337 mg/mL (≈ 141 µM). `Cc1oc2c(cc(NS(=O)(=O)c3ccc(Cl)cc3)c3ccccc32)c1C(=O)O` showed a solubility kinetic greater than 0.0624 mg/mL. `CC1CCN(C(=O)c2ccc(N3CCOCC3)c([N+](=O)[O-])c2)CC1` showed a solubility kinetic greater than 0.05 mg/mL. With `O=[N+]([O-])c1ccc(N2CCc3ccccc3C2)cc1` the solubility kinetic was 0.0009 mg/mL (≈ 3.54 µM). With `CN(C(=O)COC(=O)c1cc2ccccc2oc1=O)C1CCCCC1` the solubility kinetic was 0.0477 mg/mL (≈ 139 µM). `CCN(Cc1ccncc1)Cc1ccc(OC)cc1OC.O=C(O)C(=O)O` showed a solubility kinetic of 0.0435 mg/mL. Work on `Cc1ccc2c(c1)oc(=O)n2CC(=O)c1ccccc1` yielded a solubility kinetic of 0.0065 mg/mL (≈ 24.3 µM). `CC1CCN(C(=O)/C(=C\c2ccco2)NC(=O)c2ccccc2)CC1` gave a solubility kinetic greater than 0.0508 mg/mL. In the case of `O=C(O)c1cc(S(=O)(=O)N2CCOCC2)c[nH]1`, the solubility kinetic is reported as greater than 0.039 mg/mL. With `O=C(c1ccc(Cl)s1)N1CCN(c2ncccn2)CC1` the solubility kinetic was greater than 0.0463 mg/mL. With `C[C@H](Nc1ccc(C(F)(F)F)cc1[N+](=O)[O-])C(=O)O.[Cl-]` the solubility kinetic was greater than 0.047 mg/mL. `Cc1ccc(S(=O)(=O)c2c[nH]c3ccc(C)cc3c2=O)cc1` showed a solubility kinetic of less than 0.0007 mg/mL. With `COC(=O)C1=CNC=C(C(=O)OC)C1c1cccc2ccccc12` the solubility kinetic was 0.0026 mg/mL (≈ 8.04 µM). For `COc1ccc(N2CCN(C(=O)Cc3coc4cc(C)ccc34)CC2)cc1`, the solubility kinetic was 0.0259 mg/mL (≈ 71.1 µM).
